Results on 22 compounds are retold here after patent US7589123B2, “Chemical compounds” (Phytopharm PLC, priority 2006, dated 2009).

The test system of series [1] is ovalbumin-sensitised mice. Put plainly: Ovalbumin-sensitised mice, a chronic model of asthma in vivo (Assay 8). The settings on record: mean ± s.e.mean, oral gavage 20 days: 2 3 mg/kg/day, 32 30 mg/kg/day, budesonide 1 mg/kg/day, montelukast 10 mg/kg/day; for Eosinophil infiltration / IL-4 concentration / IL-13 concentration: BAL fluid day 55; for Eosinophil infiltration: sensitised 192.1 ± 33.2; for IL-4 concentration: sensitised 231.2 ± 62.4; for IL-13 concentration: sensitised 241.9 ± 89.3; for Histopathology score: lung remodelling, day 55, sensitised 541.6 ± 36.1; for Increase in penH: methacholine challenge, day 54, sensitised 193.0 ± 61.7. How it is done: Mice (BALB/c from Harlan-Olac) were sensitised to ovalbumin using two interperitoneal injections of ovalbumin (10 μg) and alum (200 μl) on day 1 and 14 followed by a 20 min, daily exposure to a ovalbumin aerosol (5%) on days 19-23 and then a thrice weekly 20 min, exposure to a ovalbumin aerosol (5%) on days 24-55. […] On day 54, mice were placed in BUXCO four chamber whole body plethysmographs and breathing-associated pressure changes were recorded which were then used to calculate enhanced pause (penH), a measurement of airways resistance, in response to a methacholine challenge.
On day 55 the mice were killed and brochoalveolar lavage (BAL) fluid was collected and cytospins prepared to measure eosinophil infiltration. In addition, concentrations of interleukin-4 (IL-4) and interleukin-13 (IL-13) were measured in the BAL fluid. Furthermore, lung samples were taken, examined by a histopathologist and scored using a grading system to describe the degree of lung remodelling.

In series [2] the test system is 5-HT-induced contractions in guinea pig ileum. Put plainly: Inhibition of 5-HT-induced contractions in guinea pig ileum (Assay 3). The settings on record: Cavia porcellus, 5-HT 2.6 μM, read-out: Inhibition of 5-HT-induced contraction (%). In outline:
(§1)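 Ileal strips from male Duncan Hartley guinea pigs were held at 1 g tension in 32° C oxygenated Krebs (pH 7.4) with isotonic transducers. After control contractions to 5-HT (2.6 μM) or histamine (1.7 μM), compound at 3 and 30 μM was added, its own effect noted, and agonist re-applied.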

Series [3] deals with IL-1α-induced PGE2 release. Put plainly: IL-1α-induced PGE2 release in human diploid lung fibroblasts (WI-38) (Assay 5). Type of series: cell-based. The settings on record: Homo sapiens, WI-38 cells, IL-1α 1 nM, overnight. In outline: (§2)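 Cell viability was read by Alamar Blue fluorescence (530/590 nm) after 4 h at 37 °C, following an overnight 37 °C incubation of human lung fibroblasts with 1 nM IL-1α and compound (3 or 30 μM) in 10% FBS MEM, pH 7.3. Supernatant PGE2 was measured by radioimmunoassay to derive percent inhibition.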

The test system of another series is WI-38 cells. Put plainly: Viability of WI-38 cells, Alamar Blue (Assay 5). Type of series: cell-based, human. In outline:
as §2
A general note: Resazurin is reduced to fluorescent resorufin, in cell work by metabolically active cells.

Series [4] deals with histamine-induced contractions in guinea pig ileum. Put plainly: Inhibition of histamine-induced contractions in guinea pig ileum (Assay 3). The conditions noted are these: Cavia porcellus, histamine 1.7 μM, read-out: Inhibition of histamine-induced contraction (%). In short, it runs like this:
as §1

The structures appear in SMILES notation.

What is called melting point is the temperature, or range, at which the solid turns liquid. The inhibition is the change of the read-out against control, counted positive when it falls.

As to `COc1cc(/C=C/C(=O)CC(=O)C2CC2)ccc1O` [Compound 37, (E)-1-Cyclopropyl-5-(4-hydroxy-3-methoxyphenyl)-pent-4-ene-1,3-dione], the melting point is 74.5 to 79 °C. Still for that read-out and setting: then `COc1cc(C=CC(=O)CC(=O)c2ccc(Cl)cc2Cl)ccc1O` [Compound 56, 1-(2,4-Dichlorophenyl)-5-(4-hydroxy-3-methoxyphenyl)pent-4-ene-1,3-dione], with 86 to 87 °C; and `COc1cc(C=CC(=O)CC(=O)c2ccc(Cl)c(Cl)c2)ccc1O` [Compound 55, 1-(3,4-Dichlorophenyl)-5-(4-hydroxy-3-methoxyphenyl)pent-4-ene-1,3-dione], with 78 to 80 °C. On the same count and under the same terms, the figure for `COc1cc(/C=C/C(=O)CC(=O)Cc2ccccc2)ccc1O` [Compound 60, (E)-6-(4-Hydroxy-3-methoxyphenyl)-1-phenyl-hex-5-ene-2,4-dione] is 106 °C; for `COc1cc(/C=C/C(=O)CC(=O)c2ccc(C(C)(C)C)cc2)ccc1O` [Compound 102, (E)-1-(4-tert-Butylphenyl)-5-(4-hydroxy-3-methoxyphenyl)pent-4-ene-1,3-dione] it is 87 to 88 °C. Take `COC(=O)c1ccc(C(=O)CC(=O)/C=C/c2ccc(O)c(OC)c2)cc1` [Compound 57, Methyl 4-[(E)-1,3-dioxo-5-(4-hydroxy-3-methoxyphenyl)pent-4-enyl]benzoate]: the melting point fell in the range of 187 to 189 °C. For the compound `COc1cc(CCC(=O)CC(=O)c2ccccc2)ccc1OCCN.Cl`, the melting point is 80 °C. Consider `COc1cc(/C=C/C(=O)CC(=O)c2ccc(C#N)cc2)ccc1O` [Compound 101, (E)-1-(4-Cyanophenyl)-5-(4-hydroxy-3-methoxyphenyl)pent-4-ene-1,3-dione], for which the melting point lay in the range of 128 to 130 °C.

For the compound `CCCC1O[C@@H]2C[C@H]3[C@@H]4CCC5=CC(=O)C=C[C@]5(C)[C@H]4[C@@H](O)C[C@]3(C)[C@]2(C(=O)CO)O1` (some centres unmarked) [budesonide, reference compound], in series [1], the Eosinophil infiltration is listed as 38.4 ± 5.4% of control, the IL-4 concentration is 144.2 ± 59.7% of control, the IL-13 concentration is on record as 199.3 ± 110.1% of control and the Histopathology score is listed as 200.0 ± 27.6% of control. Moreover, the “Increase in penH” value in series [1] is recorded as 184.6 ± 27.7% of control. The compound `COc1cc(C=CC(=O)CC(=O)c2ccc(Cl)cc2)ccc1O` [Compound 53, 1-(4-Chlorophenyl)-5-(4-hydroxy-3-methoxyphenyl)pent-4-ene-1,3-dione] yielded a melting point of 57 to 63 °C.

`COc1cc(C=CC(=O)CC(=O)c2cccc(Cl)c2)ccc1O` [Compound 54, 1-(3-Chlorophenyl)-5-(4-hydroxy-3-methoxyphenyl)pent-4-ene-1,3-dione]: the melting point lay in the range of 54 to 55 °C. Still for that read-out and setting: the figure for `COc1cc(/C=C/C(=O)CC(=O)c2ccc(Cl)c(C)c2)ccc1O` [Compound 95, (E)-1-(4-Chloro-3-methylphenyl)-5-(4-hydroxy-3-methoxyphenyl)pent-4-ene-1,3-dione] is 68 to 70 °C; for `COc1cc(/C=C/C(=O)CC(=O)c2ccc3ccccc3c2)c(Cl)cc1O` [Compound 105, (E)-5-(2-Chloro-4-hydroxy-5-methoxyphenyl)-1-(naphthalene-3-yl)pent-4-ene-1,3-dione] it is 134 °C; for `COc1cc(/C=C/C(=O)CC(=O)c2ccccc2C)ccc1O` [Compound 103, (E)-5-(4-Hydroxy-3-methoxyphenyl)-1-o-tolylpent-4-ene-1,3-dione] it is 96 °C. `CCOc1cc(/C=C/C(=O)CC(=O)c2ccccc2)ccc1O` [Compound 106, (E)-5-(3-Ethoxy-4-hydroxyphenyl)-1-phenylpent-4-ene-1,3-dione] yielded a melting point of 110 to 112 °C. As for `CC(C)(O)c1ccccc1CC[C@@H](SCC1(CC(=O)O)CC1)c1cccc(/C=C/c2ccc3ccc(Cl)cc3n2)c1` [montelukast, reference compound], in series [1], the Eosinophil infiltration is listed as 124.3 ± 24.8% of control, the IL-4 concentration is given as 58.2 ± 37.2% of control, the IL-13 concentration is on record as 73.2 ± 55.3% of control and the Histopathology score was 450.0 ± 38.25% of control. Further, the “Increase in penH” value in series [1] is 187.6 ± 31.9% of control. `COc1cc(/C=C/C(=O)CC(=O)c2ccc(C)c(Cl)c2)ccc1O` [Compound 98, (E)-1-(3-Chloro-4-methylphenyl)-5-(4-hydroxy-3-methoxyphenyl)pent-4-ene-1,3-dione] showed a melting point of 70 to 72 °C. On the same count and under the same terms, then `COc1cc(/C=C/C(=O)CC(=O)c2cccc(C)c2)ccc1O` [Compound 104, (E)-5-(4-Hydroxy-3-methoxyphenyl)-1-m-tolylpent-4-ene-1,3-dione], with 52 °C; and `COc1cc(/C=C/C(=O)CC(=O)c2ccccc2Cl)ccc1O` [Compound 94, (E)-1-(2-Chlorophenyl)-5(4-hydroxy-3-methoxyphenyl)pent-4-ene-1,3-dione], with 89 °C; and `COc1cc(/C=C/C(=O)C(C)(C)C(=O)C(C)(C)C)ccc1O` [Compound 91, (E)-1-(4-Hydroxy-3-methoxyphenyl)-4,4,6,6-tetramethylhept-1-ene-3,5-dione], with 98 to 99 °C. The compound `COc1cc(/C=C/C(=O)CC(=O)c2ccc(O)c(OC)c2)ccc1O` [Compound 47, (E)-1,5-Bis-(4-hydroxy-3-methoxyphenyl)-pent-4-ene-1,3-dione] gave a melting point of 170 to 172 °C. For the same compound, the inhibition at 3 µM in series [2] (3 μM) was 6%. For the same compound, in series [2] (30 μM), the inhibition at 30 µM was 33%. Moreover, the inhibition at 3 µM in series [3] (3 μM) was 10%. Besides, the inhibition at 30 µM in series [3] (30 μM) worked out at 109%. Moreover, the “Decrease in cell viability (%)” value in the series on WI-38 cells (3 μM) is recorded as 1%. In the series on WI-38 cells (30 μM), the “Decrease in cell viability (%)” value amounted to 11%. Besides, the inhibition at 3 µM in series [4] (3 μM) came out at 5%. In series [4] (30 μM), the inhibition at 30 µM amounted to 23%. `COc1cc(/C=C/C(=O)CC(=O)c2ccc(Cl)cc2C)ccc1O` [Compound 96, (E)-1-(4-Chloro-2-methylphenyl)-5-(4-hydroxy-3-methoxyphenyl)pent-4-ene-1,3-dione] showed a melting point of 78 °C.
